In US4211876A, “3-Pyrazolidinone carboxamides” (E. I. Du Pont de Nemours and Company, priority 1979, dated 1980):
Converted amounts (≈) assume the structure as drawn.

Assays:
[1] = tested on: rat stomach strip (fundus), contraction caused by PGE1; test: rat stomach assay: PGE1 antagonism, inhibition of PGE1-induced contraction of rat stomach fundus muscle strips; format: cell-based; settings: Tyrode solution pH 7.1, 37°, PGE1 at concentration causing about 25% of maximum response; for IC50: Rattus norvegicus, pH 7.1, rat stomach fundus strip, read-out: PGE1 Antagonist IC50
Protocol: J. Pharmacol. 12, 344 (1957)]. Male rats are decapitated and a strip is cut from the fundus of the stomach along the greater curvature. The strip (3 to 5 mm wide and 3 to 4 cm long) is suspended in Tyrode solution at pH 7.1 and 37° and gassed continuously with oxygen. Responses of the muscle are monitored isometrically by means of a strain gauge transducer. The above table lists for several compounds of this invention the concentration in μg/ml required to inhibit by 50% the contraction of muscle strips caused by a concentration of PG1 that normally causes about 25% of maximum responses ([…]). Some of the carboxamides were also run against higher concentration of PGE1 and gave greater IC50 values.

[2] = side effects after oral administration to rats; format: in vivo, rat
[3] = tested on: ethanol-induced gastric ulcer; test: ethanol-induced gastric ulcer test in rats (gastric cytoprotection); format: in vivo, rat; settings: for protection against ulcers: 2.0 mg/kg
Protocol: One of these compounds is the tert-butylcarboxamide 7 of Example 3. In a test designed to detect gastric cytoprotectin [Robert, U.S. Pat. No. 4,097,603], compound 7 inhibited ethanol-induced gastric ulcer to the extent of about 50 % when administered orally to rats at 2 mg/kg. Under similar conditions 0.5 mg/kg of PGE1 inhibited ulcer formation to the extent of 80%. […] At 2.0 mg/kg compound 14 of Example 7 gave about 18% protection and compound 16 of Example 8 gave about 27% protection against ulcers.

[4] = pKa measured in 1:1 ethanol/water; format: physicochemical; settings: p-toluenesulfonate salt
Protocol: This iodamide was treated with pyrazolidinone 6 by a procedure analogous to that used for the synthesis of 10, Example 4b. The crude product 15, was obtained as an oil in 94% yield. A solution of 6.84 g of 15 in 3 ml of dry acetonitrile was added to a solution of 3.39 g of p-toluenesulfonic acid in 26 ml of dry acetonitrile, giving 5.12 g (66%) of salt 16, mp 123°-126°. Recrystallization from acetonitrile gave analytically pure salt 16, mp 129°-130.5°; Anal. calcd. for C28 H49 N3 SO6 : C, 60.51; H, 8.89; N, 7.56; found C, 60.50; H, 8.75; N, 7.89.

[5] = rats, oral, doses as high as 300 mg/kg

Row | IC50 [1] [µg/mL] | SMILES | further results
1 | 60 (≈ 151 µM) | CCCCCC(O)CCN1CCC(=O)N1CCCCCCC(=O)NC(C)(C)C (stereo not drawn) [Compound 1, N-(tert-butyl)-7[3-oxo-1(3-hydroxy-n-octyl)pyrazolidin-2-yl]heptanamide] | –
2 | 25 (≈ 60.7 µM) | CCCCCC(O)CCN1CCC(=O)N1CCCCCCC(=O)NC(C)(C)CC (stereo not drawn) [Compound 5, N(tert-Amyl)7[3-oxo-1(3-hydroxy-n-octyl)pyrazolidin-2-yl]heptanamide] | –
3 | 3 to 5 (≈ 7.29 to 12.1 µM) | CCCCCC(O)CCN1C(=O)CCN1CCCCCCC(=O)NCC(C)(C)C (stereo not drawn) [Compound 10, N(2,2-Dimethylpropyl)7[3-oxo-2(3-hydroxy-n-octyl)-pyrazolidin-1-yl]heptanamide] | –
4 | 5 (≈ 12.1 µM) | CCCCCC(O)CCN1C(=O)CCN1CCCCCCC(=O)NC(C)(C)CC (stereo not drawn) [Compound 12, N(1,1-Dimethylpropyl)7-[3-oxo-2(3-hydroxy-n-octyl)pyrazolidin-1-yl]heptanamide] | –

Further lines, the compound ahead of its results:

Row | SMILES | IC50 [1] [µg/mL] | further results
5 | CCCCCC(O)CCN1C(=O)CCN1CCCCCCC(=O)NC(C)(C)C (stereo not drawn) [Compound 7, N(tert-Butyl)7[3-oxo-2-(3-hydroxy-n-octyl)pyrazolidin-1-yl]heptanamide] | 33 (≈ 83 µM) | overt prostaglandin-like side effects ([2]; rat, in vivo, po): no overt prostaglandin-like side effects; diarrhea [2, 5]: no mortality or diarrhea; mortality [2, 5]: no mortality; inhibition of ethanol-induced gastric ulcer ([3]; oral, 2 mg/kg): about 50%
6 | CCCCCC(O)CCN1C(=O)CCN1CCCCCCC(=O)NC(C)(C)C (stereo not drawn) [Compound 9, N(tert-Butyl)7[3-oxo-2-(3-hydroxy-n-octyl)pyrazolidin-1-yl]heptanamide] | – | PGE1 Antagonist IC50 ([1]; rat stomach fundus strip): 60 µg/mL
7 | CCCCCC(O)CCN1C(=O)CCN1CCCCCCC(=O)N(C(C)C)C(C)C (stereo not drawn) [Compound 13, N,N(Diisopropyl)7-[3-oxo-2(3-hydroxy-n-octyl)-pyrazolidin-1-yl]heptanamide] | 20 (≈ 47 µM) | –
8 | CCCCCC(O)CCN1C(=O)CCN1CCCCCCC(=O)NC(C)(C)CC(C)(C)C (stereo not drawn) [Compound 14, N(1,1,3,3,-Tetramethyl-n-butyl)7[3-oxo-2(3-hydroxy-n-octyl)pyrazolidin-1-yl]heptanamide] | 2 (≈ 4.41 µM) | protection against ulcers [3]: about 18%
9 | CCCCCC(O)CCN1C(=O)CCN1CCCCCCC(=O)NC(C)C (stereo not drawn) [Compound 16, N(iso-Propyl)7[3-oxo-2(3-hydroxy-n-octyl)pyrazolidin-1-yl]heptanamide] | 75 (≈ 196 µM) | pKa [4]: 3.25; protection against ulcers [3]: about 27%
10 | CCCCCC(O)CCN1C(=O)CCN1CCCCCCC(=O)NC (stereo not drawn) [Compound 17, N-methyl-7[3-oxo-2(hydroxy-n-octyl)pyrazolidin-1-yl]heptanamide] | 175 (≈ 492 µM) | –
11 | CCCCC[C@H](O)/C=C/[C@H]1[C@H](O)CC(=O)[C@@H]1CCCCCCC(=O)O [PGE1, reference compound] | – | inhibition of ulcer formation ([3]; similar conditions, 0.5 mg/kg): 80%
